# Results published in US20240101576A1, “HETEROCYCLIC INHIBITORS OF EGFR AND/OR HER2, FOR USE IN THE TREATMENT OF CANCER” (Scorpion Therapeutics, Inc., priority 2020, published 2024).
# Columns and labels:
# Assay type in all cases: cell-based
# [1] = target: T1, EGFR exon 20 NPG Ins D770_N771 (Ba/F3 cells) (Homo sapiens, UniProt P00533, INS770NPG); assay: Inhibitor activity on EGFR-dependent cell growth (CellTiter-Glo, 72 h), Ba/F3 EGFR exon 20 NPG Ins; settings: read-out: BaF3 NPG IC50
# T1 construct: expressed in transfected cells; host or cells: Ba/F3 (murine pro-B cells), retroviral transduction, puromycin selection, IL3-independent pool
# Outline: (§1)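 IC50s derive from a sigmoidal dose–response fit of CellTiter-Glo signal. The signal was normalised between […]-treated cells and cell-free medium. Ba/F3 mutant-EGFR cells, seeded at 400–800/well depending on the line, had 72 h of exposure to a 10-point, 3-fold compound series.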
# EGFR WT (Ba/F3 cells) = target: T2, EGFR WT (Ba/F3 cells) (Homo sapiens, UniProt P00533); assay: Inhibitor activity on EGFR-dependent cell growth (CellTiter-Glo, 72 h), Ba/F3 EGFR WT; settings: read-out: BaF3 WT IC50
# T2 construct: expressed in transfected cells; host or cells: Ba/F3 (murine pro-B cells), retroviral transduction, puromycin selection, maintained with EGF
# Outline: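 This growth assay used Ba/F3 cells that depend on wild-type EGFR and are kept in EGF without IL3. Compounds were made up as 10 mM DMSO stocks and diluted 3-fold over 10 points. 120 nL went onto 600 cells/well. After 72 hours, 40 μL CellTiter-Glo was added and luminescence read on EnVision after 30 min.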
# [2] = target: T3, EGFR exon 20 SVD Ins D770_N771 (Ba/F3 cells) (Homo sapiens, UniProt P00533, INS770SVD); assay: Inhibitor activity on EGFR-dependent cell growth (CellTiter-Glo, 72 h), Ba/F3 EGFR exon 20 SVD Ins; settings: read-out: BaF3 SVD IC50
# T3 construct: expressed in transfected cells; host or cells: Ba/F3 (murine pro-B cells), retroviral transduction, puromycin selection, IL3-independent pool
# Outline: as §1
# [3] = target: T4, EGFR exon 20 ASV Ins V769_D770 (Ba/F3 cells) (Homo sapiens, UniProt P00533, INS769ASV); assay: Inhibitor activity on EGFR-dependent cell growth (CellTiter-Glo, 72 h), Ba/F3 EGFR exon 20 ASV Ins; settings: read-out: BaF3 ASV IC50
# T4 construct: expressed in transfected cells; host or cells: Ba/F3 (murine pro-B cells), retroviral transduction, puromycin selection, IL3-independent pool
# Outline: as §1
# EGFR (CUTO14 cells) = EGFR (CUTO14 cells) (Homo sapiens, UniProt P00533); assay: Inhibitor activity on EGFR phosphorylation (pEGFR AlphaLISA, 2 h), CUTO14 cells
# Description: Example B. Inhibitor Activity on EGFR phosphorylation (pEGFR)
# EGFR mutant Ba/F3 cells were generated by transduction with retrovirus containing vectors expressing EGFR L858R, EGFR exon 19del, EGFR L858R/C797S, EGFR exon 20 NPG Ins D770_N771, EGFR exon 20 ASV Ins V769_D770, or EGFR exon 20 SVD Ins D770_N771 genes along with a puromycin selection marker. Transduced cells are selected with puromycin for 7 days and are then be transferred into culture media without Interleukin 3 (IL3). Surviving cells are confirmed to express EGFR by Western blot and maintained as a pool. CUTO14 cells were obtained from Dr. Robert C. Doebele at the University of Colorado. The IC50 date are included in Table 6 and Table 7.
# (§2) 1.1 Cells are harvested from flask into cell culture medium and the cell number counted.
# 1.2 Cells are diluted with culture medium to the desired density and 40 μL of cell suspension is added into each well of 384-well cell culture plate and the seeding density is 50K cells/well (Ba/F3) or 12.5K cells/well (CUTO14).
# (§3) 2 Compound Preparation and Treatment
# (§4) 2.1 Test compounds are dissolved to 10 mM in a DMSO stock solution. 45 μL of stock solution is transferred to a 384 polypropylene plate (pp-plate). Perform 3-fold, 10-point dilution via transferring 15 μL compound into 30 μL DMSO using a TECAN (EVO200) liquid handler.
# (§5) 2.2 Spin plates at room temperature at 1,000 RPM for 1 minute.
# 2.3 Transfer 5 nL of diluted compound from compound source plate into the cell plate.
# 2.4 After compound treatment for 2 hours, perform pEGFR detection by AlphaLISA for compound treatment plates as described in “Detection” section.
# 3 Detection by pEGFR AlphaLISA (Perkin-Elmer)
# 3.1 Plates are removed from incubators and equilibrated at room temperature for 10 minutes, and media was removed
# 3.2 10 μL of lysis buffer is added and plates shaken at 600 rpm for 1 hr.
# 3.3 Prepare acceptor mix just before use and dispense 5 μL of acceptor mix to all the wells. Shake 350 rpm for Ihr in the dark
# 3.4 Prepare donor mix under low light conditions prior to use. Dispense 5 μL of donor mix to all the wells. Mix well on the shaker, seal and wrap in aluminum foil and incubate 1.5 hrs at room temperature in the dark
# 3.5 Transfer 18.5 μL mixture to OptiPlate 384, and read using an Envision. The IC50 date were included in Table 6 and Table 7.
# [4] = target: EGFR exon 19del (Ba/F3 cells) (Homo sapiens, UniProt P00533); assay: Inhibitor activity on EGFR-dependent cell growth (CellTiter-Glo, 72 h), Ba/F3 EGFR exon 19del; settings: Ba/F3 EGFR exon 19del cell growth, read-out: BaF3 Del19 IC50
# Description: (§6) Example A. Inhibitor Activity on EGFR-Dependent Cell Growth
# (§7) Cell lines are generated by transducing Ba/F3 cells with retroviruses containing vectors with EGFR WT, EGFR L858R, EGFR exon 19del, EGFR L858R/C797S, EGFR exon 20 NPG Ins D770_N771, EGFR exon 20 ASV Ins V769_D770, EGFR exon 20 SVD Ins D770_N771, or EGFR exon 20 FQEA Ins A763_V764 genes and a puromycin selection marker. Transduced cells are selected with puromycin for 7 days and are then be transferred into culture media without Interleukin 3 (IL3). EGFR WT cells are maintained with supplemental EGF. Surviving cells are confirmed to express EGFR by Western blot and maintained as a pool. The IC50 date were included in Table 6 and Table 7.
# as §2
# (§8) 1.2 Cells are diluted with culture medium to the desired density and 40 μL of cell suspension is added into each well of 384-well cell culture plate and the seeding density is 800 (FQEA, exon 19del), 600 (WT, NPG, L858R/C797S), or 400 (ASV, SVD, L858R) cells/well.
# as §3, §4, §5
# (§9) 2.3 Transfer 120 nL of diluted compound from compound source plate into the cell plate.
# (§10) 2.4 After compound treatment for 72 hours, perform CTG detection for compound treatment plates as described in “Detection” section.
# (§11) 3.1 Plates are removed from incubators and equilibrated at room temperature for 15 minutes.
# (§12) 3.2 Thaw the CellTiter Glo reagents and allow to equilibrate to room temperature before the experiment.
# (§13) 3.3 Add 40 μL of CellTiter-Glo reagent into each well (at 1:1 to culture medium). Then place the plates at room temperature for 30 min followed by reading on EnVision.
# (§14) 4.1 Inhibition activity is calculated following the formula below:
# (§15) % Inhibition=100×(LumHC−LumSample)/(LumHC−LumLC) • where HC is obtained from cells treated with 0.1% DMSO only; and LC is obtained from culture medium only.
# (§16) 4.2 2. Calculate the IC50 by fitting the Curve using Xlfit (v5.3.1.3), equation 201.
# (§17) Y=Bottom+(Top−Bottom)/(1+10^((Log IC50−X)*HillSlope))
# EGFR L858R (Ba/F3 cells) = target: T5, EGFR L858R (Ba/F3 cells) (Homo sapiens, UniProt P00533, L858R); assay: Inhibitor activity on EGFR-dependent cell growth (CellTiter-Glo, 72 h), Ba/F3 EGFR L858R; settings: read-out: BaF3 L858R IC50
# T5 construct: expressed in transfected cells; host or cells: Ba/F3 (murine pro-B cells), retroviral transduction, puromycin selection, IL3-independent pool
# Description: as §6, §7, §2, §8, §3, §4, §5, §9, §10, §11, §12, §13, §14, §15, §16, §17
# T3 sequence (P00533 with tags, fused parts or gaps INS770SVD): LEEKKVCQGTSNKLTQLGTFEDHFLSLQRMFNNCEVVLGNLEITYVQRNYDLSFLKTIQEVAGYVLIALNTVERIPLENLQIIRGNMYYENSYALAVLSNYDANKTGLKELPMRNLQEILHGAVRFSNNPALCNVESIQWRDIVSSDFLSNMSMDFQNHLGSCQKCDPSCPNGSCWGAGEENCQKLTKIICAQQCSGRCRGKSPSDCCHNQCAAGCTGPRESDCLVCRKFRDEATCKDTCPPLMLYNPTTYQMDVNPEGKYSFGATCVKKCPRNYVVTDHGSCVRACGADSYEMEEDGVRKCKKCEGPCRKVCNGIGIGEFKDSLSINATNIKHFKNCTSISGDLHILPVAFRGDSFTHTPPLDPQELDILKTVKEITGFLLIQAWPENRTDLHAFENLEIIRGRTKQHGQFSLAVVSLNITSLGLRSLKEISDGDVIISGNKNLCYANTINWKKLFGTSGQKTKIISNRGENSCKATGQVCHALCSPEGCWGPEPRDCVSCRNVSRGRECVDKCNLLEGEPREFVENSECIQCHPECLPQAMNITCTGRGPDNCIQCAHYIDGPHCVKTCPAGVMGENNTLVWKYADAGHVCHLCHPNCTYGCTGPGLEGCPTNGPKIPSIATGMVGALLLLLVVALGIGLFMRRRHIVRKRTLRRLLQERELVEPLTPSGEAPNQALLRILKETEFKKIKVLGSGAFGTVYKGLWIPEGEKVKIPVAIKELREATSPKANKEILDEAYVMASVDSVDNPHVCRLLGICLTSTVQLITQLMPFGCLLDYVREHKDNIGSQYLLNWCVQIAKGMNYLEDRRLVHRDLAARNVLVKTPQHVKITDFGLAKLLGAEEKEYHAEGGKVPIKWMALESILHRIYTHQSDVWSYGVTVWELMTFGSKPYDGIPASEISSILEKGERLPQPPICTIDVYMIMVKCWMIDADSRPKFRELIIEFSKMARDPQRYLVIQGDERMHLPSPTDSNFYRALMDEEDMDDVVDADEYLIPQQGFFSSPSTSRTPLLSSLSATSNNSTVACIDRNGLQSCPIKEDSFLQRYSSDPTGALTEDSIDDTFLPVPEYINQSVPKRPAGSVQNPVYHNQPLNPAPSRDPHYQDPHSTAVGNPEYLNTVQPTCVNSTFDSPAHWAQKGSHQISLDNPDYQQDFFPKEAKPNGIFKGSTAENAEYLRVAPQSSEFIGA
# T2 sequence (P00533 25-1210): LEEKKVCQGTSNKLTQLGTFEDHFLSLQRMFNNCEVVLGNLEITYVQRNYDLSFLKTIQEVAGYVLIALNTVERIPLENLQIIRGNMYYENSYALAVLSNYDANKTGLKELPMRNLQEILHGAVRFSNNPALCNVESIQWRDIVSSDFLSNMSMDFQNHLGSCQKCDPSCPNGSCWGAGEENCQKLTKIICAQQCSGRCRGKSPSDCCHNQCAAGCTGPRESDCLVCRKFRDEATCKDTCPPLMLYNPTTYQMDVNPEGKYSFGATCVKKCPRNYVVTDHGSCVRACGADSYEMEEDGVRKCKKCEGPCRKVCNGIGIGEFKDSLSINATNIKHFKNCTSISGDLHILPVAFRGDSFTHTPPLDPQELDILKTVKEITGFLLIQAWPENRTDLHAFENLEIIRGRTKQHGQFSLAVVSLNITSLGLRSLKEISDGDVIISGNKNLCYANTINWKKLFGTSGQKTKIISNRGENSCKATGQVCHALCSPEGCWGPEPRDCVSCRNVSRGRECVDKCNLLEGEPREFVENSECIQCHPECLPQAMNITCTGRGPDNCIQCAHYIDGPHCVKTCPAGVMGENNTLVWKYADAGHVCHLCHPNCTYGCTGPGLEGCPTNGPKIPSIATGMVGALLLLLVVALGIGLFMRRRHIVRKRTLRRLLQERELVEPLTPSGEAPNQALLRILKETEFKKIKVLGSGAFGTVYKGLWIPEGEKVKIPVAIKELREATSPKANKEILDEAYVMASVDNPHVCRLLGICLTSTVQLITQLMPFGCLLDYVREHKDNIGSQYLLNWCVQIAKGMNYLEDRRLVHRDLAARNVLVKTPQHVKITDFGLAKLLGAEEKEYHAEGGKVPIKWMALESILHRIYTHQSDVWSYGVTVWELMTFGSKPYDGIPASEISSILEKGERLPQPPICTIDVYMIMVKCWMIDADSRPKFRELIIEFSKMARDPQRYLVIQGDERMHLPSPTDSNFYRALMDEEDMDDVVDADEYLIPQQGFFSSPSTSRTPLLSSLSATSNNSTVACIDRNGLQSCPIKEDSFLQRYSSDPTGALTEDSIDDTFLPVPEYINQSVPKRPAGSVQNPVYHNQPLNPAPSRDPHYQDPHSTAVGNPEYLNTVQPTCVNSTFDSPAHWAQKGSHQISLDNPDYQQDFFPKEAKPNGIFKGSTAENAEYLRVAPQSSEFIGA
# T1 sequence (P00533 with tags, fused parts or gaps INS770NPG): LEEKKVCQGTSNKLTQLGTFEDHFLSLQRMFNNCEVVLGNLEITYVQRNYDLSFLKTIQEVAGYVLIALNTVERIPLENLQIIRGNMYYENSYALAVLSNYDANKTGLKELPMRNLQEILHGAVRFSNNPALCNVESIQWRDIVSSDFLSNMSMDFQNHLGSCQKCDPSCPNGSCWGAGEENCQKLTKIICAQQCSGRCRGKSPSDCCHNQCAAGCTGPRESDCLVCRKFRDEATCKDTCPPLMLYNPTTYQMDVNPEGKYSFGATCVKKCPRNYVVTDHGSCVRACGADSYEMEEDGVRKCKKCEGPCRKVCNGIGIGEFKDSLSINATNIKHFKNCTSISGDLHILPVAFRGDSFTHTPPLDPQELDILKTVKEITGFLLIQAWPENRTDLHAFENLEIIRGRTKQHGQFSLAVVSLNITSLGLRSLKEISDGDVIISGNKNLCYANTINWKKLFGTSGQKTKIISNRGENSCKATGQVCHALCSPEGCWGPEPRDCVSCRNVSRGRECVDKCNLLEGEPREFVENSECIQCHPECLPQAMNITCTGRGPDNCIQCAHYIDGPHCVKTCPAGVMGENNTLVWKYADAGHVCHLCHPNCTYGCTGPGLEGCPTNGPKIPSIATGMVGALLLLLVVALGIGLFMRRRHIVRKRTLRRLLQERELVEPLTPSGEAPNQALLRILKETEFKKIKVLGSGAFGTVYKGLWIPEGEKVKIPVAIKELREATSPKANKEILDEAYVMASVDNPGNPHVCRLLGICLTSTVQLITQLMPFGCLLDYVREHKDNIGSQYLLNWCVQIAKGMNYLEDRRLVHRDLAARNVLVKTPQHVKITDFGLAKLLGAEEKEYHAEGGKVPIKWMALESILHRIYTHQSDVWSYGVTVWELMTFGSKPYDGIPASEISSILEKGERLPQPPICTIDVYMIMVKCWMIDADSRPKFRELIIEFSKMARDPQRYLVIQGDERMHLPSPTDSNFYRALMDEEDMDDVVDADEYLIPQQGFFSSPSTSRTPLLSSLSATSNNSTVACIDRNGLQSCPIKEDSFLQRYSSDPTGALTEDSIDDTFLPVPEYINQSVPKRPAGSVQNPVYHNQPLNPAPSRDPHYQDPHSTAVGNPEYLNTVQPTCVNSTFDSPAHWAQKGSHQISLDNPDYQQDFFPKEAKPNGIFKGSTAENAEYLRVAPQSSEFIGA
# T4 sequence (P00533 with tags, fused parts or gaps INS769ASV): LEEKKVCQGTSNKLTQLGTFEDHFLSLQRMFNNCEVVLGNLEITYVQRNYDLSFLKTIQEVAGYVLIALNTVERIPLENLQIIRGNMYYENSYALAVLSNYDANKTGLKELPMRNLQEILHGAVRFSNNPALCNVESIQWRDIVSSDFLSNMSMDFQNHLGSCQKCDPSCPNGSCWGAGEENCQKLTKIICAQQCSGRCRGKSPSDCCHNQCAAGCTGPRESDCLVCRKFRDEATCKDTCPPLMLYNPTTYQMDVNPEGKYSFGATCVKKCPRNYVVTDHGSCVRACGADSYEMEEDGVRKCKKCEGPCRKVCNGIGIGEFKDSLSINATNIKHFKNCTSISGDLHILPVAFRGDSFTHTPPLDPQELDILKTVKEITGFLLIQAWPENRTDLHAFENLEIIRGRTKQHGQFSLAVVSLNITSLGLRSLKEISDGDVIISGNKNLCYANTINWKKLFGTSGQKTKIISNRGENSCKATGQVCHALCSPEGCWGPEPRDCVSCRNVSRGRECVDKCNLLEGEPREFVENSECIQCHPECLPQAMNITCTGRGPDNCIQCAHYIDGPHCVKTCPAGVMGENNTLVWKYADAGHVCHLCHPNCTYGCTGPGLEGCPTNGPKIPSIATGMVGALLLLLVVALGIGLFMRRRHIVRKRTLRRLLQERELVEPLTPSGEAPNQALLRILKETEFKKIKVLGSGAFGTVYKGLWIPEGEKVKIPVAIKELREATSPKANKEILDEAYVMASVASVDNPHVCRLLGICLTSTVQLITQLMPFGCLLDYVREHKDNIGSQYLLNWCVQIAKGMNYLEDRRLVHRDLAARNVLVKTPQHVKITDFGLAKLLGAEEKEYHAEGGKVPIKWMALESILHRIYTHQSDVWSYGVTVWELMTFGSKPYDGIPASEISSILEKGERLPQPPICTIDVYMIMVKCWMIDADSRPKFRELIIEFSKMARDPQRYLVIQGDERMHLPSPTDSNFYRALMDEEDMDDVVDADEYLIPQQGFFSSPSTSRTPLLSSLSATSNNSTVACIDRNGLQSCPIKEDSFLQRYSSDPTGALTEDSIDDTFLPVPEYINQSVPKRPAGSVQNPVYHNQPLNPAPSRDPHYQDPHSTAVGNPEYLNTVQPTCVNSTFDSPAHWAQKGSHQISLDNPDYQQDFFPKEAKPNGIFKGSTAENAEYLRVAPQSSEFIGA
SMILES,IC50 [1],IC50 (EGFR WT (Ba/F3 cells)),IC50 [2],IC50 [3],IC50 (EGFR (CUTO14 cells)),IC50 [4],IC50 (EGFR L858R (Ba/F3 cells))
"COc1c(Cl)cccc1Nc1c(-c2ccncc2F)[nH]c2c1C(=O)NCC2C[C@@H]1CO[C@@H](CN(C)C)CO1 (single isomer, unassigned) [Compound 562, (7R*)-3-[(3-chloro-2-methoxyphenyl)amino]-7-{[(2R,5S)-5-[(dimethylamino)methyl]-1,4-dioxan-2-yl]methyl}-2-(3-fluoropyridin-4-yl)-1H,5H,6H,7H-pyrrolo[3,2-c]pyridin-4-one]",< 100 nM,100 to 1000 nM,< 100 nM,< 100 nM,< 100 nM,,
"COc1c(Cl)cccc1Nc1c(-c2ccncc2)[nH]c2c1C(=O)NCC2C[C@@H]1CN(C)CCO1 (single isomer, unassigned) [Compound 646]",> 1000 nM,> 1000 nM,> 1000 nM,> 1000 nM,< 100 nM,,
"COc1c(Cl)cccc1Nc1c(-c2ccnc(C)n2)[nH]c2c1C(=O)NC[C@@H]2C[C@@H]1COCCO1 [Compound 552, (7S)-3-[(3-chloro-2-methoxyphenyl)amino]-7-[(2R)-1,4-dioxan-2-ylmethyl]-2-(2-methylpyrimidin-4-yl)-1H,5H,6H,7H-pyrrolo[3,2-c]pyridin-4-one]",< 100 nM,> 1000 nM,,,< 100 nM,,
"C=CC(=O)N1CCC2(CC1)CNC(=O)c1c2[nH]c(-c2ccncn2)c1Nc1cccc(F)c1OC [Compound 611, 3′-[(3-fluoro-2-methoxyphenyl)amino]-1-(prop-2-enoyl)-2′-(pyrimidin-4-yl)-5′,6′-dihydro-1′H-spiro[piperidine-4,7′-pyrrolo[3,2-c]pyridin]-4′-one]",< 100 nM,< 100 nM,< 100 nM,< 100 nM,< 100 nM,< 100 nM,< 100 nM
"COc1c(Cl)cccc1Nc1c(-c2ccncc2)[nH]c2c1C(=O)NC[C@H]2C[C@@H]1CN(C)CCO1 [Compound 645, (7R)-3-[(3-chloro-2-methoxyphenyl)amino]-7-{[(2R)-4-methylmorpholin-2-yl]methyl}-2-(pyridin-4-yl)-1H,5H,6H,7H-pyrrolo[3,2-c]pyridin-4-one]",< 100 nM,> 1000 nM,< 100 nM,< 100 nM,< 100 nM,,
"COc1c(Cl)cccc1Nc1c(-c2ccnc(Nc3cnn(C)n3)n2)[nH]c2c1C(=O)NCC2 [compound 592, 3-[(3-chloro-2-methoxyphenyl)amino]-2-{2-[(2-methyl-1,2,3-triazol-4-yl)amino]pyrimidin-4-yl}-1H,5H,6H,7H-pyrrolo[3,2-c]pyridin-4-one]",< 100 nM,100 to 1000 nM,< 100 nM,< 100 nM,< 100 nM,,
"COc1c(F)cccc1Nc1c(-c2ccnc(Nc3cnn(C)n3)n2)[nH]c2c1C(=O)NCC2 [compound 593, 3-[(3-fluoro-2-methoxyphenyl)amino]-2-{2-[(2-methyl-1,2,3-triazol-4-yl)amino]pyrimidin-4-yl}-1H,5H,6H,7H-pyrrolo[3,2-c]pyridin-4-one]",< 100 nM,100 to 1000 nM,< 100 nM,< 100 nM,< 100 nM,,
C=CC(=O)N1CCC2(CC1)CNC(=O)c1c2[nH]c(-c2ccncc2F)c1Nc1cc(F)cc(F)c1OC [compound 610],< 100 nM,100 to 1000 nM,< 100 nM,< 100 nM,< 100 nM,,
C=CC(=O)N1CCC2(CC1)CNC(=O)c1c2[nH]c(-c2ccncn2)c1Nc1cc(F)cc(F)c1OC [compound 612],< 100 nM,100 to 1000 nM,< 100 nM,< 100 nM,< 100 nM,,
C=CC(=O)N1CCC2(CC1)CNC(=O)c1c2[nH]c(-c2ccnc(C)n2)c1Nc1cc(F)cc(F)c1OC [compound 641],< 100 nM,100 to 1000 nM,< 100 nM,< 100 nM,< 100 nM,,
C=CC(=O)N1CCC2(CC1)CNC(=O)c1c2[nH]c(-c2ccnc(C)n2)c1Nc1cccc(Cl)c1OC [compound 643],< 100 nM,< 100 nM,< 100 nM,< 100 nM,< 100 nM,,
C=CC(=O)N1CCC2(CC1)CNC(=O)c1c2[nH]c(-c2ccnc(C)n2)c1Nc1cccc(F)c1OC [compound 644],< 100 nM,< 100 nM,< 100 nM,< 100 nM,< 100 nM,,
COc1c(F)cccc1Nc1c(-c2ccnc(C)n2)[nH]c2c1C(=O)NCC21CCN(C(=O)/C=C/CN(C)C)CC1 [compound 649],100 to 1000 nM,> 1000 nM,100 to 1000 nM,100 to 1000 nM,100 to 1000 nM,,
COc1c(F)cccc1Nc1c(-c2ccncn2)[nH]c2c1C(=O)NCC21CCN(C(=O)/C=C/CN(C)C)CC1 [compound 650],100 to 1000 nM,> 1000 nM,100 to 1000 nM,100 to 1000 nM,< 100 nM,,
COc1c(Cl)cc(F)cc1Nc1c(-c2ccnc(C)n2)[nH]c2c1C(=O)NC[C@H]2C[C@@H]1COCCO1 [compound 652],100 to 1000 nM,> 1000 nM,100 to 1000 nM,100 to 1000 nM,< 100 nM,,
COc1c(Cl)cccc1Nc1c(-c2ccncc2F)[nH]c2c1C(=O)NC[C@@H]2C[C@@H]1CN(C)CCO1 [compound 790],< 100 nM,100 to 1000 nM,< 100 nM,< 100 nM,< 100 nM,,
